Laboratory results as given in patent US20230013669A1, “Antibacterial Treatment Using a Cannabinoid and an Active Agent” (priority 2019, published 2023).
Where “and” joins values, the source holds several entries; their conditions need not be identical. Equal entries are not always repeated. Where two headings read alike, the source gives them in different places.

Tested on: Acinetobacter baumannii ATCC 19606 (GN_034)
Test: Synergy of cannabidiol with cell-wall disrupting agent (CBD MIC in combination, FICI)
Assay type: cell-based
Conditions: for MIC: Acinetobacter baumannii
Method: The compounds were stored short term at 4° C.
Analysis was performed using Microsoft Excel.

Compound: C=C(C)C1CCC(C)=CC1c1c(O)cc(CCCCC)cc1O (centres unmarked) [Cannabidiol, 2-[3-methyl-6-(1-methylethenyl)-2-cyclohexen-1-yl]-5-pentyl-1,3-benzenediol]
- FICI range (Acinetobacter baumannii ATCC 19606, CBD with FADDI-287, MIC table (Table 95)): 0.25-8
- FICI range (Acinetobacter baumannii ATCC 19606, CBD with FADDI-287, Synergy table (Table 97)): 0.25-8^
- FICI range (Acinetobacter baumannii ATCC 19606, CBD with MCC_8980, MIC table (Table 99)): 0.06-1.02
- FICI range (Acinetobacter baumannii ATCC 19606, CBD with MCC_8980, Synergy table (Table 101), listed as CBD): 0.06-0.25 and 0.06-0.26
- FICI range (Acinetobacter baumannii ATCC 19606, CBD with Spero SPR206, Synergy table, listed as CBD): 0.25-0.5 and 0.25
- CBD MIC with MCC_8980 (Acinetobacter baumannii ATCC 19606, MCC_8980 at 8 μg/mL, listed as CBD): 4 µg/mL
- CBD MIC with MCC_8980 (Acinetobacter baumannii ATCC 19606, MCC_8980 at 16 μg/mL, listed as CBD): 2 µg/mL
- FICI (Acinetobacter baumannii ATCC 19606, cannabidiol with FADDI-287 at 0.25 μg/mL, calculated using MIC of 256 μg/mL for cannabidiol): 0.5001
- FICI (Acinetobacter baumannii ATCC 19606, cannabidiol with FADDI-287 at 0.5 μg/mL, calculated using MIC of 256 μg/mL for cannabidiol): 1
- FICI (Acinetobacter baumannii ATCC 19606, cannabidiol with FADDI-287 at 1 μg/mL, calculated using MIC of 256 μg/mL for cannabidiol): 2
- FICI (Acinetobacter baumannii ATCC 19606, cannabidiol with FADDI-287 at 2 μg/mL, calculated using MIC of 256 μg/mL for cannabidiol): 4
- FICI (Acinetobacter baumannii ATCC 19606, cannabidiol with FADDI-287 at 4 μg/mL, calculated using MIC of 256 μg/mL for cannabidiol): 8
- FICI (Acinetobacter baumannii ATCC 19606, cannabidiol with MCC_8980 at 1 μg/mL, calculated using MIC of 256 μg/mL for cannabidiol): 1.016
- FICI (Acinetobacter baumannii ATCC 19606, cannabidiol with MCC_8980 at 2 μg/mL, calculated using MIC of 256 μg/mL for cannabidiol): 0.0625
- FICI (Acinetobacter baumannii ATCC 19606, cannabidiol with MCC_8980 at 4 μg/mL, calculated using MIC of 256 μg/mL for cannabidiol): 0.09375
- FICI (Acinetobacter baumannii ATCC 19606, cannabidiol with MCC_8980 at 8 μg/mL, calculated using MIC of 256 μg/mL for cannabidiol): 0.1328 and 0.1406
- FICI (Acinetobacter baumannii ATCC 19606, cannabidiol with MCC_8980 at 16 μg/mL, calculated using MIC of 256 μg/mL for cannabidiol): 0.2578
- FICI (Acinetobacter baumannii ATCC 19606, cannabidiol with SPR741 at 1 μg/mL, calculated using MIC of 256 μg/mL for cannabidiol): 1.016
- FICI (Acinetobacter baumannii ATCC 19606, cannabidiol with SPR741 at 2 μg/mL, calculated using MIC of 256 μg/mL for cannabidiol): 1.031
- FICI (Acinetobacter baumannii ATCC 19606, cannabidiol with SPR741 at 2 μg/mL, calculated using MIC of 256 μg/mL for cannabidiol, listed as cannabidiol): 1.016
- MIC (ATCC19606, Acinetobacter baumannii ATCC 19606, FADDI-287 at 0.25 μg/mL, read-out: CBD MIC with FADDI-287): 0.015 µg/mL
- MIC (ATCC19606, Acinetobacter baumannii ATCC 19606, FADDI-287 at 0.5 μg/mL, read-out: CBD MIC with FADDI-287): 0.001 µg/mL
- MIC (ATCC19606, Acinetobacter baumannii ATCC 19606, FADDI-287 at 1 μg/mL, read-out: CBD MIC with FADDI-287): 0.001 µg/mL
- MIC (ATCC19606, Acinetobacter baumannii ATCC 19606, FADDI-287 at 2 μg/mL, read-out: CBD MIC with FADDI-287): 0.001 µg/mL
- MIC (ATCC19606, Acinetobacter baumannii ATCC 19606, FADDI-287 at 4 μg/mL, read-out: CBD MIC with FADDI-287): 0.001 µg/mL
- MIC (ATCC19606, Acinetobacter baumannii ATCC 19606, MCC_8980 at 2 μg/mL, read-out: CBD MIC with MCC_8980): 8 µg/mL
- MIC (ATCC19606, Acinetobacter baumannii ATCC 19606, MCC_8980 at 4 μg/mL, read-out: CBD MIC with MCC_8980): 8 µg/mL
- MIC (ATCC19606, Acinetobacter baumannii ATCC 19606, MCC_8980 at 8 μg/mL, read-out: CBD MIC with MCC_8980): 2 µg/mL
- MIC (ATCC19606, Acinetobacter baumannii ATCC 19606, MCC_8980 at 16 μg/mL, read-out: CBD MIC with MCC_8980): 1 µg/mL
- MIC (ATCC19606, Acinetobacter baumannii ATCC 19606, Spero SPR206 at 2 μg/mL, read-out: CBD MIC with Spero SPR206): 0.001 µg/mL
- MIC (ATCC19606, Acinetobacter baumannii ATCC 19606, Spero SPR206 at 4 μg/mL, read-out: CBD MIC with Spero SPR206): 0.001 µg/mL
- MIC (ATCC19606, MCC_6442 at 1 μg/mL, Acinetobacter baumannii ATCC 19606, read-out: CBD MIC with MCC_6442): 16 µg/mL
- MIC (ATCC19606, MCC_6442 at 2 μg/mL, Acinetobacter baumannii ATCC 19606, read-out: CBD MIC with MCC_6442): 1 µg/mL
- MIC (ATCC19606, MCC_6442 at 4 μg/mL, Acinetobacter baumannii ATCC 19606, read-out: CBD MIC with MCC_6442): 0.5 µg/mL
- MIC (ATCC19606, Octapeptin C4 at 2 μg/mL, read-out: CBD MIC with Octapeptin C4): 8 µg/mL
- MIC (ATCC19606, Octapeptin C4 at 4 μg/mL, read-out: CBD MIC with Octapeptin C4): 2 µg/mL
- MIC (ATCC19606, Spero SPR206 at 0.25 μg/mL, 1st of 3 experiments, read-out: CBD MIC with Spero SPR206): 0.001 µg/mL
- MIC (ATCC19606, Spero SPR206 at 0.25 μg/mL, 3rd of 3 experiments, read-out: CBD MIC with Spero SPR206): > 256 µg/mL
- MIC (ATCC19606, Spero SPR206 at 0.5 μg/mL, 1st of 3 experiments, read-out: CBD MIC with Spero SPR206): 0.001 µg/mL
- MIC (ATCC19606, Spero SPR206 at 0.5 μg/mL, 3rd of 3 experiments, read-out: CBD MIC with Spero SPR206): > 256 µg/mL
- MIC (ATCC19606, Spero SPR206 at 1 μg/mL, 1st of 3 experiments, read-out: CBD MIC with Spero SPR206): 0.001 µg/mL
- MIC (ATCC19606, Spero SPR206 at 1 μg/mL, 3rd of 3 experiments, read-out: CBD MIC with Spero SPR206): 1 µg/mL
- MIC (ATCC19606, Spero SPR206 at 2 μg/mL, 1st of 3 experiments, read-out: CBD MIC with Spero SPR206): 0.001 µg/mL
- MIC (ATCC19606, Spero SPR206 at 2 μg/mL, 3rd of 3 experiments, read-out: CBD MIC with Spero SPR206): 0.001 µg/mL
- MIC (ATCC19606, Spero SPR206 at 4 μg/mL, 1st of 3 experiments, read-out: CBD MIC with Spero SPR206): 0.001 µg/mL
- MIC (ATCC19606, Spero SPR206 at 4 μg/mL, 3rd of 3 experiments, read-out: CBD MIC with Spero SPR206): 0.001 µg/mL
- CBD MIC with Aztreonam (Aztreonam at 4 μg/mL): 32 µg/mL
- CBD MIC with Aztreonam (Aztreonam at 8 μg/mL): 32 µg/mL
- CBD MIC with Aztreonam (Aztreonam at 16 μg/mL): 0.001 µg/mL
- FICI (CBD with Aztreonam at 0.5 μg/mL, CBD MIC taken as 256 μg/mL): 1.016
- FICI (CBD with Aztreonam at 1 μg/mL, CBD MIC taken as 256 μg/mL): 1.031
- FICI (CBD with Aztreonam at 2 μg/mL, CBD MIC taken as 256 μg/mL): 1.0625
- FICI (CBD with Aztreonam at 4 μg/mL, CBD MIC taken as 256 μg/mL): 0.25
